Laboratory results from US7875619B2, “Hetero substituted sodium channel blockers” (Parion Sciences, Inc., priority 2004, dated 2011).
Counter-ions that a name gives are not always drawn.

Assays:
[1] = target: T1, sodium channel (ENaC), canine bronchial epithelia (Canis lupus familiaris, UniProt A0A8I3MKE6+A0A8I3Q679+Q95165); experiment: In vitro measure of sodium channel blocking activity: inhibition of short circuit current (ISC) in airway epithelial monolayers in Ussing chambers; assay type: cell-based; settings: mean of N runs; for Fold Amiloride** (PSA 4022 = 100) Mean: relative potency for PSA 4022 = 100 using EC50 from PSA 4022 in same run
T1 construct: endogenous in cells; host or cells: primary canine bronchial epithelial cells cultured at air-liquid interface, mounted in Ussing chambers
T1 sequence (A0A8I3Q679 1-649): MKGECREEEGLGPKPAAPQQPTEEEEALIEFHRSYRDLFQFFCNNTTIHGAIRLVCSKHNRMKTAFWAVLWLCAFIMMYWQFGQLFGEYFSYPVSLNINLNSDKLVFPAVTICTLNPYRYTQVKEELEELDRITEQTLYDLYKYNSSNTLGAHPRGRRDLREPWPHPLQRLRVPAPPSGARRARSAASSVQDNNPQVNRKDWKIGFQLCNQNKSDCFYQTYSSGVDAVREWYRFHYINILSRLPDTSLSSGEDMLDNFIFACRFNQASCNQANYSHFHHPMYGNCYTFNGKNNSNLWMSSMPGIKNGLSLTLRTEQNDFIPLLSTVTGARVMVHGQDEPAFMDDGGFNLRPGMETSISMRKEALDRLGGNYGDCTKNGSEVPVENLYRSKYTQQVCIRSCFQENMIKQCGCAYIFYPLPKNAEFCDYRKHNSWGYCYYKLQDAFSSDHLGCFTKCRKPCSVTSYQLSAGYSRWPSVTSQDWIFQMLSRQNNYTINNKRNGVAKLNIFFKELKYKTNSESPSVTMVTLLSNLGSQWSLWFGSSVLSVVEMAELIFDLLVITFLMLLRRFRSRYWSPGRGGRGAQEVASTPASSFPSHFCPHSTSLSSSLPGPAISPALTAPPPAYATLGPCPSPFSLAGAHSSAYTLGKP
T1 sequence (Q95165 1-641): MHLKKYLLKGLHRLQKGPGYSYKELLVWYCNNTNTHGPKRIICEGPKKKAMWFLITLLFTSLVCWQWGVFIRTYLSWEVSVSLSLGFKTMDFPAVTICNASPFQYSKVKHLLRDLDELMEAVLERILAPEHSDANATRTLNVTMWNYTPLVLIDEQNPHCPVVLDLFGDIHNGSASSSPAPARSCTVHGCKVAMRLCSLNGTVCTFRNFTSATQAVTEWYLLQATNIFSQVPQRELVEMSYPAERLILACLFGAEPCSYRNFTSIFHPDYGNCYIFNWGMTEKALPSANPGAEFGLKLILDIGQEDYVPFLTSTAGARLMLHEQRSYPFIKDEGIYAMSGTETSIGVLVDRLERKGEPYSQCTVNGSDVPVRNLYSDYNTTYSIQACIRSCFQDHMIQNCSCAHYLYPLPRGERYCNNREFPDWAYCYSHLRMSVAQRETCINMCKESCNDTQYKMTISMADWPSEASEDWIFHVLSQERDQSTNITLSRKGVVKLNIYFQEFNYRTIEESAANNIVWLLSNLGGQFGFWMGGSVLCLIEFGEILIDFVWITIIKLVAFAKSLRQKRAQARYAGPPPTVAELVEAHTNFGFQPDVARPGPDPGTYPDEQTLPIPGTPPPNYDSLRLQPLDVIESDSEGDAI
T1 sequence (A0A8I3MKE6 1-646): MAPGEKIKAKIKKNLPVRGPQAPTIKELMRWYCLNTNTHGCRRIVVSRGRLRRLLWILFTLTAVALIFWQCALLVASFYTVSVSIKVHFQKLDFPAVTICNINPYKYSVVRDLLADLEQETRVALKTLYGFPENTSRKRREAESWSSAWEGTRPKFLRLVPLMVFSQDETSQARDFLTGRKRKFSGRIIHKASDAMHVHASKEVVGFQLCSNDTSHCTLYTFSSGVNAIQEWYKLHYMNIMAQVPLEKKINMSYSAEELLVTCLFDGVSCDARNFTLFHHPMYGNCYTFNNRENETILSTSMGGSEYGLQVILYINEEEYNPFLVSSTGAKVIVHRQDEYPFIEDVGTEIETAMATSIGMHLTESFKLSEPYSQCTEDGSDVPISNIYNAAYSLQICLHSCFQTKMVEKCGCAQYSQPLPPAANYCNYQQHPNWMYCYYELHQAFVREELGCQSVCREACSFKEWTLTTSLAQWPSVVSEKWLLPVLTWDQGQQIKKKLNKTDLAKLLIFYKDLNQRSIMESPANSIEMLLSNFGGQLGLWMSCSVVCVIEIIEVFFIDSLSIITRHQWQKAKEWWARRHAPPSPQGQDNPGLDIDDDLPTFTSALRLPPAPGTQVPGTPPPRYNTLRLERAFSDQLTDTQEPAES
Experimental: One assay used to assess mechanism of action and/or potency of the compounds of the present invention involves the determination of lumenal drug inhibition of airway epithelial sodium currents measured under short circuit current (ISC) using airway epithelial monolayers mounted in Ussing chambers. Cells obtained from freshly excised human, dog, sheep or rodent airways are seeded onto porous 0.4 micron Snapwell™ Inserts (CoStar), cultured at air-liquid interface (ALI) conditions in hormonally defined media, and assayed for sodium transport activity (ISC) while bathed in Krebs Bicarbonate Ringer (KBR) in Using chambers. All test drug additions are to the lumenal bath with half-log dose addition protocols (from 1×10^−11 M to 3×10^−5M), and the cumulative change in ISC (inhibition) recorded. All drugs are prepared in dimethyl sulfoxide as stock solutions at a concentration of 1×10^−2 M and stored at −20° C. […] After the maximal concentration (5×10^−5 M) is administered, the lumenal bath is exchanged three times with fresh drug-free KBR solution, and the resultant ISC measured after each wash for approximately 5 minutes in duration. Reversibility is defined as the percent return to the baseline value for sodium current after the third wash. All data from the voltage clamps are collected via a computer interface and analyzed off-line.
Dose-effect relationships for all compounds are considered and analyzed by the Prism 3.0 program.
PSA 4022 was also tested in each assay as a positive control.

Compound	melting point	EC50 [1]	Fold Amiloride** (PSA 4022 = 100) Mean [1]
N=C(NCCCCc1ccc(OCCNCC(N)C(N)=O)cc1)NC(=O)c1nc(Cl)c(N)nc1N (stereo not shown) (as salt: hydrochloride) [PSA 18704, 2-amino-3-[2-(4-{4-[N′-(3,5-diamino-6-chloropyrazine-2-carbonyl)-guanidino]butyl}phenoxy)ethylamino]propionamide tri-hydrochloride]	160 °C		
N=C(NCCCCc1ccc(NCCCC(N)=O)cc1)NC(=O)c1nc(Cl)c(N)nc1N [PSA 18150, 4-(4-(4-[N′-(3,5-diamino-6-chloropyrazine-2-carbonyl)guanidino]-butyl}phenylamino)butyramide dihydrochloride]		23.8 nM	44.4
N=C(NCCCCc1ccc(NCCCC(=O)O)cc1)NC(=O)c1nc(Cl)c(N)nc1N [PSA 18345, 4-(4-{4-[N′-(3,5-diamino-6-chloropyrazine-2-carbonyl)guanidino]-butyl}phenylamino)butyric acid]		69 nM	12 .4
COC(=O)[C@H](N)CCCc1ccc(CCCCNC(=N)NC(=O)c2nc(Cl)c(N)nc2N)cc1 [PSA 19603, 2-(R)-amino-5-(4-{4-[N′-(3,5-diamino-6-chloropyrazine-2-carbonyl)-guanidino]butyl}phenyl)pentanoic acid methyl ester]	76 to 79 °C	32.3 nM	39.4
N=C(NCCCCc1ccc(SCCC(N)=O)cc1)NC(=O)c1nc(Cl)c(N)nc1N [PSA 19605, 3-(4-{4-[N′-(3,5-diamino-6-chloropyrazine-2-carbonyl)guanidino]butyl}phenylthio)propionamide]		4.7 nM	145

Next, values leading:

melting point	EC50 [1]	Fold Amiloride** (PSA 4022 = 100) Mean [1]	Compound
88 to 90 °C			COC(=O)C(N)CCOc1ccc(CCCCNC(=N)NC(=O)c2nc(Cl)c(N)nc2N)cc1 (stereo not shown) (as salt: hydrochloride) [PSA 17587, 2-amino-4-(4-{4-[N′-(3,5-diamino-6-chloropyrazine-2-carbonyl)-guanidino]butyl}phenoxy)butyric acid methyl ester hydrochloride]
178 to 180 °C	29.3 nM	34.8	N=C(NCCCCc1ccc(OCCC(N)C(=O)O)cc1)NC(=O)c1nc(Cl)c(N)nc1N (stereo not shown) [PSA 17666, 2-amino-4-(4-{4-[N′-(3,5-diamino-6-chloropyrazine-2-carbonyl)-guanidino]butyl}phenoxy)butyric acid]
	14.1 nM	90.2	N=C(NCCCCc1ccc(OCCNCC(N)C(N)=O)cc1)NC(=O)c1nc(Cl)c(N)nc1N (stereo not shown) [PSA 18704, 2-amino-3-[2-(4-{4-[N′-(3,5-diamino-6-chloropyrazine-2-carbonyl)-guanidino]butyl}phenoxy)ethylamino]propionamide tri-hydrochloride]
190 to 192 °C (dec.)	17 nM	43.3	N=C(NCCCCc1ccc(CCC[C@@H](N)C(=O)O)cc1)NC(=O)c1nc(Cl)c(N)nc1N [PSA 23184, 2-(R)-amino-5-(4-{4-[N′-(3,5-diamino-6-chloropyrazine-2-carbonyl)-guanidino]butyl}phenyl)pentanoic acid]
